From ChEMBL document CHEMBL1201862, “PubChem BioAssay data set” (2004)
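Results reflect a 48-hour exposure of cells in 96-well plates to compound at five concentrations. At the GI50, growth is halved.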 The source made the active and inactive calls. No stated cut-off is given here; in the data, active = GI50 up to about 1.1 µM and inactive = higher.

Columns and labels:
Assay in all cases: inhibition of tumour cell growth, NCI panel, 48 h
TK-10 = system: TK-10
SF-539 = system: SF-539
SNB-75 = system: SNB-75
SK-OV-3 = system: SK-OV-3
HL-60 = system: HL-60
SK-MEL-2 = system: SK-MEL-2
OVCAR-8 = system: OVCAR-8
MDA-N = system: MDA-N
HT-29 = system: HT-29
SNB-19 = system: SNB-19
UO-31 = system: UO-31
SN12C = system: SN12C
HCC 2998 = system: HCC 2998
LOX IMVI = system: LOX IMVI
T47D = system: T47D
IGROV-1 = system: IGROV-1
HOP-62 = system: HOP-62
CAKI-1 = system: CAKI-1
DU-145 = system: DU-145
KM12 = system: KM12
786-0 = system: 786-0
SF-268 = system: SF-268
NCI-H522 = system: NCI-H522
NCI-H23 = system: NCI-H23
MDA-MB-231 = system: MDA-MB-231
UACC-62 = system: UACC-62
OVCAR-5 = system: OVCAR-5
MCF7 = system: MCF7
A549 = system: A549
PC-3 = system: PC-3
MDA-MB-435 = system: MDA-MB-435
EKVX = system: EKVX
HCT-116 = system: HCT-116
SW-620 = system: SW-620
ACHN = system: ACHN
MOLT-4 = system: MOLT-4
NCI/ADR-RES = system: NCI/ADR-RES
A498 = system: A498
HCT-15 = system: HCT-15
SF-295 = system: SF-295
K562 = system: K562
OVCAR-3 = system: OVCAR-3
BT-549 = system: BT-549
HOP-92 = system: HOP-92
NCI-H226 = system: NCI-H226
CCRF-CEM = system: CCRF-CEM
NCI-H460 = system: NCI-H460
OVCAR-4 = system: OVCAR-4
UACC-257 = system: UACC-257
M14 = system: M14
Hs-578T = system: Hs-578T
U-251 = system: U-251
RPMI-8226 = system: RPMI-8226
RXF 393 = system: RXF 393
COLO 205 = system: COLO 205
SK-MEL-5 = system: SK-MEL-5
SK-MEL-28 = system: SK-MEL-28
Malme-3M = system: Malme-3M

In the case of `CC1(C)CC(=O)C(=CNc2nc(-c3cccc([N+](=O)[O-])c3)cs2)C(=O)C1`, the GI50 (TK-10) is reported as 35.8 µM (inactive), the GI50 (SF-539) is reported as 20.8 µM (inactive) and the GI50 (SNB-75) is reported as 14.9 µM (inactive). For the same compound, the GI50 (SK-OV-3) was 32.7 µM (inactive), the GI50 (HL-60) was 7.52 µM (inactive) and the GI50 (SK-MEL-2) was 55.8 µM (inactive). The GI50 (OVCAR-8) was 23.7 µM (inactive), the GI50 (MDA-N) was 17.8 µM (inactive) and the GI50 (HT-29) was 17 µM (inactive). For the same compound, the GI50 (SNB-19) was 15.3 µM (inactive), the GI50 (UO-31) was 25.6 µM (inactive) and the GI50 (SN12C) was 18.1 µM (inactive). The GI50 (HCC 2998) was 15.7 µM (inactive), the GI50 (LOX IMVI) was 13.7 µM (inactive) and the GI50 (T47D) was 18.1 µM (inactive). For the same compound, the GI50 (IGROV-1) was 17.6 µM (inactive), the GI50 (HOP-62) was 19.6 µM (inactive) and the GI50 (CAKI-1) was 11.3 µM (inactive). For the same compound, the GI50 (DU-145) was 29.4 µM (inactive), the GI50 (KM12) was 16.6 µM (inactive) and the GI50 (786-0) was 15.1 µM (inactive). The GI50 (SF-268) was 15 µM (inactive), the GI50 (NCI-H522) was 9.04 µM (inactive) and the GI50 (NCI-H23) was 18.1 µM (inactive). The GI50 (MDA-MB-231) was 18.5 µM (inactive), the GI50 (UACC-62) was 16 µM (inactive) and the GI50 (OVCAR-5) was 46.3 µM (inactive). For the same compound, the GI50 (MCF7) was 15.8 µM (inactive), the GI50 (A549) was 66.1 µM (inactive) and the GI50 (PC-3) was 24.8 µM (inactive). For the same compound, the GI50 (MDA-MB-435) was 21.4 µM (inactive), the GI50 (EKVX) was 14.7 µM (inactive) and the GI50 (HCT-116) was 14.9 µM (inactive). For the same compound, the GI50 (SW-620) was 11.9 µM (inactive), the GI50 (ACHN) was 18.2 µM (inactive) and the GI50 (MOLT-4) was 10.5 µM (inactive). The GI50 (NCI/ADR-RES) was 18 µM (inactive), the GI50 (A498) was 13.8 µM (inactive) and the GI50 (HCT-15) was 11.6 µM. For the same compound, the GI50 (SF-295) was 37.2 µM (inactive), the GI50 (K562) was 16.6 µM (inactive) and the GI50 (OVCAR-3) was 29 µM (inactive). The GI50 (BT-549) was 18.7 µM (inactive), the GI50 (HOP-92) was 17.3 µM (inactive) and the GI50 (NCI-H226) was 15.3 µM (inactive). For the same compound, the GI50 (CCRF-CEM) was 2 µM (inactive), the GI50 (NCI-H460) was 14.7 µM (inactive) and the GI50 (OVCAR-4) was 27.5 µM (inactive). For the same compound, the GI50 (UACC-257) was 22.5 µM (inactive), the GI50 (M14) was 15.8 µM (inactive) and the GI50 (Hs-578T) was 18.9 µM (inactive). The GI50 (U-251) was 19.6 µM (inactive), the GI50 (RPMI-8226) was 17.9 µM (inactive) and the GI50 (RXF 393) was 21.7 µM (inactive). The GI50 (COLO 205) was 14.8 µM (inactive).
`Fc1ccc(C(OCCN2CCC3CCC(C2)N3Cc2cc3ccccc3[nH]2)c2ccc(F)cc2)cc1` (stereo not drawn) was tested, and the GI50 (TK-10) was 2.43 µM (inactive), the GI50 (SK-MEL-5) was 1.72 µM (inactive) and the GI50 (SF-539) was 1.59 µM (inactive). The GI50 (SNB-75) was 1.89 µM (inactive), the GI50 (SK-OV-3) was 2.33 µM (inactive) and the GI50 (HL-60) was 1.58 µM (inactive). The GI50 (SK-MEL-28) was 1.61 µM (inactive), the GI50 (SK-MEL-2) was 1.71 µM (inactive) and the GI50 (OVCAR-8) was 1.73 µM (inactive). For the same compound, the GI50 (MDA-N) was 1.73 µM (inactive), the GI50 (HT-29) was 1.08 µM (active) and the GI50 (SNB-19) was 2.54 µM (inactive). The GI50 (UO-31) was 2 µM (inactive), the GI50 (SN12C) was 1.68 µM (inactive) and the GI50 (HCC 2998) was 1.63 µM (inactive). The GI50 (LOX IMVI) was 1.79 µM (inactive), the GI50 (T47D) was 1.59 µM (inactive) and the GI50 (IGROV-1) was 1.38 µM (inactive). For the same compound, the GI50 (HOP-62) was 2.05 µM (inactive), the GI50 (CAKI-1) was 2.23 µM (inactive) and the GI50 (DU-145) was 1.85 µM (inactive). For the same compound, the GI50 (KM12) was 1.71 µM (inactive), the GI50 (786-0) was 1.65 µM (inactive) and the GI50 (SF-268) was 2.04 µM (inactive). The GI50 (NCI-H522) was 1.47 µM (inactive), the GI50 (NCI-H23) was 1.58 µM (inactive) and the GI50 (MDA-MB-231) was 1.7 µM (inactive). The GI50 (UACC-62) was 2.08 µM (inactive), the GI50 (OVCAR-5) was 1.74 µM (inactive) and the GI50 (MCF7) was 1.79 µM (inactive). For the same compound, the GI50 (A549) was 2.01 µM (inactive), the GI50 (PC-3) was 1.7 µM (inactive) and the GI50 (MDA-MB-435) was 1.88 µM (inactive). The GI50 (EKVX) was 1.7 µM (inactive), the GI50 (HCT-116) was 1.33 µM (inactive) and the GI50 (SW-620) was 1.56 µM (inactive). For the same compound, the GI50 (ACHN) was 1.89 µM (inactive), the GI50 (MOLT-4) was 1.35 µM (inactive) and the GI50 (NCI/ADR-RES) was 1.57 µM (inactive). The GI50 (A498) was 1.47 µM (inactive), the GI50 (HCT-15) was 1.15 µM and the GI50 (SF-295) was 1.96 µM (inactive). For the same compound, the GI50 (K562) was 1.13 µM (inactive), the GI50 (OVCAR-3) was 1.77 µM (inactive) and the GI50 (BT-549) was 2.32 µM (inactive). For the same compound, the GI50 (HOP-92) was 1.84 µM (inactive), the GI50 (NCI-H226) was 1.83 µM (inactive) and the GI50 (Malme-3M) was 1.58 µM (inactive). The GI50 (CCRF-CEM) was 1.71 µM (inactive), the GI50 (NCI-H460) was 1.78 µM (inactive) and the GI50 (OVCAR-4) was 1.95 µM (inactive). For the same compound, the GI50 (UACC-257) was 1.95 µM (inactive), the GI50 (M14) was 1.6 µM (inactive) and the GI50 (Hs-578T) was 1.88 µM (inactive). For the same compound, the GI50 (U-251) was 1.87 µM (inactive), the GI50 (RPMI-8226) was 1.42 µM (inactive) and the GI50 (RXF 393) was 1.59 µM (inactive). The GI50 (COLO 205) was 0.962 µM (active).
